In general, GI50 refers to the concentration giving 50% growth inhibition.

Data on 22 molecules can be found in patent publication US20250388575A1, “HETEROBIFUNCTIONAL COMPOUNDS AND METHODS OF TREATING DISEASE” (Halda Therapeutics OpCo, Inc., priority 2022, published 2025).

The test system of test [1] is T-Rex 293 cell line SC3 cells having increased expression of androgen receptor protein. Put plainly: Cellular growth inhibition, T-Rex 293 SC3 cells with increased androgen receptor expression (doxycycline), CellTiter-Glo. The class given is cell-based. Particulars: T-Rex 293 SC3 cells with increased androgen receptor expression (exposed to 10 ng/mL doxycycline), 72 hours, CellTiter-Glo; read-out: GI50. In a few lines: (§1)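 SC3, a T-Rex 293 clone with doxycycline-inducible wild-type androgen receptor, was seeded in phenol red-free DMEM with 10% charcoal-dextran FBS, with or without 10 ng/mL doxycycline. Compound added at 24 h (0.5% DMSO) for 72 h at 37° C. CellTiter-Glo 2.0 luminescence; GI50 from four-parameter fit.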

For test [2], the system named is T-Rex 293 cell line SC3 cells lacking increased expression of androgen receptor protein. Put plainly: Cellular growth inhibition, T-Rex 293 SC3 cells lacking increased androgen receptor expression (no doxycycline), CellTiter-Glo. It counts as cell-based. The note with it: T-Rex 293 SC3 cells lacking increased androgen receptor expression (not exposed to doxycycline), 72 hours, CellTiter-Glo; read-out: GI50. In a few lines:
as §1
For orientation: ATP-based viability assays read luminescence as a measure of living cells.

A further test relates to VCaP cells. Nature of the test: Cellular growth inhibition assay for VCaP cells, CellTiter-Glo. It counts as cell-based, human. The note with it: VCaP cells, 72 hours, CellTiter-Glo, read-out: GI50. In a few lines: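 GI50 values come from four-parameter curve fits of luminescence data normalized to a zero baseline. Compound, in medium with 0.5% DMSO, was added one day after plating and left for 72 h before CellTiter-Glo 2.0 addition.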

In the next test the test system is T47D cells. Nature of the test: Cellular growth inhibition assay for T47D cells, CellTiter-Glo. The class given is cell-based, human. The note with it: 72 hours treatment, CellTiter-Glo 2.0. The method, then:
T47D cells were purchased from American Type Cell Culture (ATCC Cat #HTB-133) and then seeded on poly-D-lysine coated, black clear-bottom 384-well plates at 3000/well in 25 μL Dulbecco's Modified Eagle Medium (DMEM) supplemented with 10% w/w Fetal bovine serum (FBS), 0.2 units/mL recombinant human insulin (Gibco Cat #12585014), and 1% w/w Pen-Strep. Pen-Strep is a commercially available mixture of penicillin G and streptomycin, which is used in mammalian cell culture media to prevent bacterial contamination. Dulbecco's Modified Eagle Medium (DMEM) supplemented with 10% w/w fetal bovine serum (FBS), 0.2 units/mL recombinant human insulin, and 1% w/w Pen-Strep is herein referred to as Treatment Medium. Following seeding of cells in the plates, the plates were spun at 300×g for 30 seconds, then equilibrated to room temperature for 30 minutes, and then deposited in a humidified tissue culture incubator maintained at 37° C. with 5% CO2.
At 24 hours after seeding of the cells, dilutions of test compound were prepared in DMSO and dissolved in Treatment Medium, to achieve a final DMSO concentration of 0.5% w/w, thereby providing the Test Compound Solution. A 25 μL aliquot of the Test Compound Solution was added to cells in the well plates. An equal volume of a solution containing DMSO and Treatment Medium was used as a negative control. Following treatment of cells with Test Compound Solution or said equal volume of a solution containing DMSO and Treatment Medium, the plates were spun at 300×g for 30 seconds, and then left in an incubator for 72 hours.
At the end of the treatment duration, cell viability was quantified with CellTiter-Glo 2.0 reagent (Promega Cat #G9243). For this purpose, plates were equilibrated to room temperature for 30 minutes, and then 25 μL of CellTiter-Glo 2.0 reagent was added to cells in the plate wells. Plates were then agitated on a shaker for two minutes at 500 rpm and subsequently incubated at room temperature for 10 minutes. Following incubation, the plates were spun at 3000×g for 30 seconds, then sealed with an optical adhesive cover, and luminescence readings were measured with an EnVision Plate Reader (Perkin Elmer).
Data was normalized using zero luminescence for baseline. A four-parameter non-linear regression curve fit was applied to dose-response data in GraphPad Prism data analysis software to determine the half-maximal growth inhibitory concentration (GI50) for each test compound.

Like-named read-outs stand apart in the source and are kept apart here.

As to `CCS(=O)(=O)c1ccc(Oc2ccc(OC3CC4(C3)CN(c3ccc(C(=O)N[C@H]5CC[C@H](Oc6ccc(C#N)c(Cl)c6)CC5)nn3)C4)c(F)c2)c(-c2cn(C)c(=O)c3[nH]ccc23)c1` [I-44], the GI50 (in test [1]; in test [2]; in the test on VCaP cells (Homo sapiens); in the test on T47D cells (Homo sapiens)) was less than 500 nM throughout.
For `CCS(=O)(=O)c1ccc(Oc2cccc(CCCOC3CC4(C3)CN(c3cnc(C(=O)N[C@H]5CC[C@H](Oc6ccc(C#N)c(Cl)c6)CC5)cn3)C4)c2F)c(-c2cn(C)c(=O)c3[nH]ccc23)c1` [I-48], the GI50 is less than 500 nM in test [1], less than 500 nM in test [2], 500 to 1500 nM with VCaP cells (Homo sapiens) and less than 500 nM in the test on T47D cells (Homo sapiens).
Consider `CCS(=O)(=O)c1ccc(Oc2cc(F)c(CCC3CCN(c4ccc(C(=O)N[C@H]5CC[C@H](Oc6ccc(C#N)c(Cl)c6)CC5)nn4)CC3)c(F)c2)c(-c2cn(C)c(=O)c3[nH]ccc23)c1` [I-49], for which the GI50 is less than 500 nM in test [1], less than 500 nM in test [2], less than 500 nM with VCaP cells and 1500 to 3000 nM in the test on T47D cells.
For the molecule `CCS(=O)(=O)c1ccc(Oc2c(F)cc(CCC3CCN(c4ccc(C(=O)N[C@H]5CC[C@H](Oc6ccc(C#N)c(Cl)c6)CC5)nn4)CC3)cc2F)c(-c2cn(C)c(=O)c3[nH]ccc23)c1` [I-58], the concentration for 50% growth inhibition (GI50) in test [1] was less than 500 nM; in test [2] it was greater than 3000 nM; in the test on VCaP cells it was less than 500 nM; in the test on T47D cells it was less than 500 nM.
As for `CCS(=O)(=O)c1ccc(Oc2ccc(C3CC4(CCN(c5ccc(C(=O)N[C@H]6CC[C@H](Oc7ccc(C#N)c(Cl)c7)CC6)nn5)CC4)C3)cc2)c(-c2cn(C)c(=O)c3[nH]ccc23)c1` [I-60], the GI50 (in test [1]; in test [2]; in the test on VCaP cells; with T47D cells) was less than 500 nM in each case.
For `CCS(=O)(=O)c1ccc(Oc2ccc(CCCC3CCN(c4ccc(C(=O)N[C@H]5CC[C@H](Oc6ccc(C#N)c(Cl)c6)CC5)nn4)CC3)cc2)c(-c2cn(C)c(=O)c3[nH]ccc23)c1` [I-61], the GI50 (in test [1]; in test [2]; in the test on VCaP cells (Homo sapiens); in the test on T47D cells (Homo sapiens)) was less than 500 nM each time.
In the case of `CCS(=O)(=O)c1ccc(Oc2cccc(CCCC3CCN(c4ncc(C(=O)N[C@H]5CC[C@H](Oc6ccc(C#N)c(Cl)c6)CC5)cn4)CC3)c2)c(-c2cn(C)c(=O)c3[nH]ccc23)c1` [I-66], the 50% growth inhibitory concentration (GI50) (in test [1]; in test [2]; in the test on VCaP cells; in the test with T47D cells) was less than 500 nM each time.
Turning to `CCS(=O)(=O)c1ccc(Oc2ccc(CCC3CC4(C3)CN(c3ccc(C(=O)N[C@H]5CC[C@H](Oc6ccc(C#N)c(Cl)c6)CC5)nn3)C4)cc2)c(-c2cn(C)c(=O)c3[nH]ccc23)c1` [I-67], the concentration for 50% growth inhibition (GI50) (in test [1]; in test [2]; in the test on VCaP cells; in the test with T47D cells) was less than 500 nM each time.
For the molecule `CCS(=O)(=O)c1ccc(Oc2ccc(CCCC3CN(c4ccc(C(=O)N[C@H]5CC[C@H](Oc6ccc(C#N)c(Cl)c6)CC5)nn4)C3)cc2)c(-c2cn(C)c(=O)c3[nH]ccc23)c1` [I-68], the GI50 (in test [1]; in test [2]; in the test on VCaP cells; in the test with T47D cells) was less than 500 nM each time.
Regarding `CCS(=O)(=O)c1ccc(Oc2ccc(CC3CC4(C3)CN(c3ccc(C(=O)N[C@H]5CC[C@H](Oc6ccc(C#N)c(Cl)c6)CC5)nn3)C4)cc2)c(-c2cn(C)c(=O)c3[nH]ccc23)c1` [I-69], the concentration for 50% growth inhibition (GI50) (in test [1]; in test [2]; with VCaP cells (Homo sapiens); in the test on T47D cells (Homo sapiens)) was less than 500 nM in each case.
Take `CCS(=O)(=O)c1ccc(Oc2ccc(CCC3C4CN(c5ccc(C(=O)N[C@H]6CC[C@H](Oc7ccc(C#N)c(Cl)c7)CC6)nn5)CC34)cc2)c(-c2cn(C)c(=O)c3[nH]ccc23)c1` (stereo partly shown) [I-70]: the 50% growth inhibitory concentration (GI50) (in test [1]; in test [2]; with VCaP cells; with T47D cells) was less than 500 nM throughout.
As for `CCS(=O)(=O)c1ccc(Oc2ccc(CCCC3C4CN(c5ccc(C(=O)N[C@H]6CC[C@H](Oc7ccc(C#N)c(Cl)c7)CC6)nn5)CC34)cc2)c(-c2cn(C)c(=O)c3[nH]ccc23)c1` (stereo partly shown) [I-71], the GI50 (in test [1]; in test [2]; with VCaP cells (Homo sapiens); in the test on T47D cells (Homo sapiens)) was less than 500 nM in each case.
Take `CCS(=O)(=O)c1ccc(Oc2ccc(CCC3CN(c4ccc(C(=O)N[C@H]5CC[C@H](Oc6ccc(C#N)c(Cl)c6)CC5)nn4)C3)cc2)c(-c2cn(C)c(=O)c3[nH]ccc23)c1` [I-72]: the concentration for 50% growth inhibition (GI50) (in test [1]; in test [2]; with VCaP cells; in the test on T47D cells) was less than 500 nM each time.
For the molecule `CCS(=O)(=O)c1ccc(Oc2ccc(CCCCC3CN(c4ccc(C(=O)N[C@H]5CC[C@H](Oc6ccc(C#N)c(Cl)c6)CC5)nn4)C3)cc2)c(-c2cn(C)c(=O)c3[nH]ccc23)c1` [I-73], the 50% growth inhibitory concentration (GI50) (in test [1]; in test [2]; in the test on VCaP cells; in the test with T47D cells) was less than 500 nM each time.
`CCS(=O)(=O)c1ccc(Oc2ccc(CN3CC4(C3)CN(c3ccc(C(=O)N[C@H]5CC[C@H](Oc6ccc(C#N)c(Cl)c6)CC5)nn3)C4)c(F)c2)c(-c2cn(C)c(=O)c3[nH]ccc23)c1` [I-74]: the 50% growth inhibitory concentration (GI50) (in test [1]; in test [2]; with VCaP cells (Homo sapiens); in the test with T47D cells (Homo sapiens)) was less than 500 nM each time.
Take `CCS(=O)(=O)c1ccc(Oc2ccc(CN3CCC4(CCN(c5ccc(C(=O)N[C@H]6CC[C@H](Oc7ccc(C#N)c(Cl)c7)CC6)nn5)C4)C3)c(F)c2)c(-c2cn(C)c(=O)c3[nH]ccc23)c1` (stereo partly shown) [I-75]: the GI50 (in test [1]; in test [2]; with VCaP cells (Homo sapiens); in the test on T47D cells (Homo sapiens)) was less than 500 nM throughout.
Turning to `Cn1cc(-c2cc(S(=O)(=O)C3CC3)ccc2Oc2ccc(CCC3CCN(c4ccc(C(=O)N[C@H]5CC[C@H](Oc6ccc(C#N)c(Cl)c6)CC5)nn4)CC3)cc2)c2cc[nH]c2c1=O` [I-76], the GI50 (in test [1]; in test [2]; with VCaP cells; in the test on T47D cells) was less than 500 nM in each case.
For `CCS(=O)(=O)c1ccc(Oc2ccc(CC3CN(c4ccc(C(=O)N[C@H]5CC[C@H](Oc6ccc(C#N)c(Cl)c6)CC5)nn4)C3)cc2)c(-c2cn(C)c(=O)c3[nH]ccc23)c1` [I-77], the concentration for 50% growth inhibition (GI50) (in test [1]; in test [2]; with VCaP cells (Homo sapiens); with T47D cells (Homo sapiens)) was less than 500 nM in each case.
For the molecule `CCS(=O)(=O)c1ccc(Oc2ccc(CN3CC4(CCN(c5ccc(C(=O)N[C@H]6CC[C@H](Oc7ccc(C#N)c(Cl)c7)CC6)nn5)CC4)C3)c(F)c2)c(-c2cn(C)c(=O)c3[nH]ccc23)c1` [I-78], the GI50 (in test [1]; in test [2]; with VCaP cells (Homo sapiens); with T47D cells (Homo sapiens)) was less than 500 nM throughout.
For `CCS(=O)(=O)c1ccc(Oc2ccc(CCC3CCN(c4ccc(C(=O)N[C@H]5CC[C@H](Oc6ccc(C#N)c(Cl)c6)CC5)nn4)CC3)c(C#N)c2)c(-c2cn(C)c(=O)c3[nH]ccc23)c1` [I-79], the GI50 in test [1] was less than 500 nM; in test [2] it was greater than 3000 nM; with VCaP cells it was less than 500 nM; in the test with T47D cells, 500 to 1500 nM.
As for `CCS(=O)(=O)c1ccc(Oc2ccc(CC3CCN(c4ccc(C(=O)N[C@H]5CC[C@H](Oc6ccc(C#N)c(Cl)c6)CC5)nn4)CC3)c(F)c2)c(-c2cn(C)c(=O)c3[nH]ccc23)c1` [I-80], the 50% growth inhibitory concentration (GI50) (in test [1]; in test [2]; with VCaP cells (Homo sapiens); with T47D cells (Homo sapiens)) was less than 500 nM in each case.
Take `CCS(=O)(=O)c1ccc(Oc2ccc(CC3CC4(CCN(c5ccc(C(=O)N[C@H]6CC[C@H](Oc7ccc(C#N)c(Cl)c7)CC6)nn5)CC4)C3)c(F)c2)c(-c2cn(C)c(=O)c3[nH]ccc23)c1` [I-81]: the 50% growth inhibitory concentration (GI50) (in test [1]; in test [2]; with VCaP cells (Homo sapiens); in the test on T47D cells (Homo sapiens)) was less than 500 nM throughout.
